Assay: Retention rate of the agriculturally active ingredient after xenon light irradiation (neat film on petri dish)
Type: physicochemical
Settings: xenon light (290 nm cutoff), intensity 0.68 W/m^2 at 340 nm, 8 hours, 35° C.; 5 mg air-dried on glass petri dish; HPLC
Procedure: A method for the calculation of a retention rate of the agriculturally active ingredient defined above is more specifically as follows. First, 250 mg of the agriculturally active ingredient is dissolved in 50 ml of a solvent such as acetone, which can sufficiently dissolve the agriculturally active ingredient and also has high volatility, and 1 mL of the solution is added to a glass petri dish having a diameter of 6 cm using a one-mark pipette, spread entirely over the petri dish, and then air-dried at room temperature. The petri dish is covered with a lid made of quartz glass and then set in a weathering tester (manufactured by Q-Lab Corporation under the trade name of Q-SUN Xenon Accelerated Weathering Tester, Model Xe-3) equipped with a borosilicate filter (manufactured by Q-Lab Corporation under the trade name of Daylight-BB Optical Filter) attached thereto. After irradiation with xenon light under the conditions of an intensity at 340 nm of 0.68 W/m^2 and a temperature of 35° C. (35° C. as measured by an insulated black panel thermometer) for 8 hours, the amount of the agriculturally active ingredient remaining on the petri dish is determined by a known determination method such as high-performance liquid chromatography. It is possible to determine a retention rate by calculating as the weight percentage relative to 5 mg of the agriculturally active ingredient used above. […]

C=CCSC(=O)n1c(N)c(-c2ccccc2C)c(=O)n1C(C)C [fenpyrazamine]
retention rate after irradiation with xenon light: 28.1%

— patent US9572345B2, “Pesticidal composition in the form of aqueous emulsion” (Sumitomo Chemical Company, Limited, priority 2012, dated 2017)
